Paper PMC11681892, “Targeting p62 by sulforaphane promotes autolysosomal degradation of SLC7A11, inducing ferroptosis for osteosarcoma treatment” (Redox Biology, 2024)

Key:
p62 [1] = target: T1, p62 (Homo sapiens, UniProt Q13501); assay: microscale thermophoresis (Monolith NT.[…]); format: binding
T1 construct: gene SQSTM1; p62-mCherry plasmid expressed in HEK293T, RIPA lysate (MST); endogenous p62 in human osteosarcoma cells (CETSA); p62 mutants transfected into 143B cells (DARTS)

p62 [2] = target: T1, p62; assay: cellular thermal shift assay (CETSA), western blot; format: cell-based; conditions: endogenous p62 in osteosarcoma cells, SFN 20 μM, 2 h, 46-60 °C gradient

T1 sequence (Q13501 2-440): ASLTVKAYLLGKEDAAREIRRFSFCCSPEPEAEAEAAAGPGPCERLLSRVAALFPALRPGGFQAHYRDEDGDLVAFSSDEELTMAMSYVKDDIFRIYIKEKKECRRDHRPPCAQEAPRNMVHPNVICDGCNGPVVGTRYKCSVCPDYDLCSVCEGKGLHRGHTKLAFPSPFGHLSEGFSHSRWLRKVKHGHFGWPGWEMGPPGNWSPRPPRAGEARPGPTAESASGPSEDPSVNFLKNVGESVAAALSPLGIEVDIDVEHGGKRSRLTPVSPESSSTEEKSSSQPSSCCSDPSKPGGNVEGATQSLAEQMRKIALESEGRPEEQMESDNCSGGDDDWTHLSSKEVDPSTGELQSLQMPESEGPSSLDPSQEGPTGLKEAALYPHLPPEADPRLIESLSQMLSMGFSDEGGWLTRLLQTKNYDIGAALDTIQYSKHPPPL

With C[S@@+]([O-])CCCCN=C=S [Sulforaphane] the Kd (p62 [1]) was 15.5 ± 3.93 µM and the “thermal stability (CETSA)” value (p62 [2]) was “SFN significantly enhanced the thermal stability of p62 in OS cells (Fig. 6C)”.
